In US20250250227A1, “AMINO LIPID COMPOUND, PREPARATION METHOD THEREFOR, COMPOSITION THEREOF AND USE THEREOF” (SHENZHEN SHENXIN BIOTECHNOLOGY CO., LTD., priority 2022, published 2025):

How the values were obtained:
[1] = Preparation and characterisation of mRNA-encapsulating lipid nanoparticle (encapsulation efficiency, particle size); type: physicochemical; conditions: LNP encapsulating Fluc mRNA; Lipid:DSPC:CHO-HP:M-DMG-2000 48:10:40.5:1.5
Experimental: A specified amount of Fluc mRNA stock solution, 0.2 M sodium acetate buffer, and DEPC water were added to a container, and mixed well to obtain a water phase;
The amino lipid compound of the present disclosure, a helper lipid, a structural lipid, and a PEG-lipid were separately dissolved in absolute ethanol to prepare respective solutions at concentrations of 20 mg/mL, 10 mg/mL, 20 mg/mL, and 25 mg/mL, respectively. The above four solutions were pipetted at a molar ratio of Lipid:DSPC:CHO—HP:M-DMG-2000 of 48:10:40.5:1.5, and mixed well to prepare an alcohol phase. • (2) Encapsulation: The water phase and the alcohol phase were injected into a microfluidic chip at a flow rate of water phase: alcohol phase=12 mL/min: 4 mL/min by using a microfluidic preparation instrument (MPE-L2), and encapsulation was carried out at a flow rate of water phase: alcohol phase=9 mL/min: 3 mL/min to obtain mRNA-encapsulating lipid nanoparticle (mRNA-LNP). • (3) Dialysis: The product of step (2) was loaded in a dialysis bag and placed in a Tris Buffer-8% sucrose solution for replacement to remove ingredients such as residual ethanol, unassembled lipids. Dialysis was conducted for 2 h with magnetic stirring at room temperature and under protection from light (dialysate was replaced every 1 hour). • (4) The product of step (3) was sterilized by passing through a […] microporous membrane, and then packaged.
Lipid nanoparticle formulations encapsulating Fluc mRNA were prepared, with a concentration of Fluc mRNA of 0.2 g/L, a mass ratio of Fluc mRNA to Lipid of 1:10, a particle size of 80-130 nm, and a encapsulation efficiency of 85% or higher.
The encapsulation efficiency of the lipid nanoparticle encapsulating luciferase mRNA (Fluc mRNA) with a representative amino lipid compound and the fluorescence expression intensity induced by the same are shown in Table 4, with the amino lipid compound 118 as a control. […]

Female BALB/c mice = assay: Performance evaluation of in vivo delivery of Fluc mRNA lipid nanoparticle (IVIS, body and organs); conditions: Fluc mRNA LNP; for Liver (fluorescence expression intensity) / Spleen (fluorescence expression intensity): 75 μL IV; for Liver (fluorescence expression intensity) / Spleen (fluorescence expression intensity) / Total flux (fluorescence expression intensity) / (Spleen/Total Flux) * 100%: 6 hours after injection; for Liver (fluorescence expression intensity) / Spleen (fluorescence expression intensity) / Total flux (fluorescence expression intensity): IVIS; for Total flux (fluorescence expression intensity): 75 μL tail vein injection (IV); for (Spleen/Total Flux) * 100% / Multiple of spleen delivery/total delivery to amino lipid compound 118: IV; for Multiple of spleen delivery/total delivery to amino lipid compound 118: relative to amino lipid compound 118
Experimental: Animal preparation: Female BALB/c mice of 6-8 weeks old were selected and raised in an SPF grade breeding room. Animal testing was conducted in strict accordance with the guidelines of national health institutions and animal ethics requirements.
In vivo Delivery: prior to injection of the test LNP formulations, the LNP formulations were gently and repeatedly inverted to thoroughly mix the formulation samples. A corresponding amount of the formulation samples were aspirated with a 1 ml insulin syringe, and the LNP formulations were injected by tail vein injection (IV), with 3 mice in duplicate per formulation. Each mouse was injected with 75 μL of the luciferase mRNA (Fluc mRNA)-encapsulating lipid nanoparticle formulation prepared in Experimental Example 1.
6 hours after injection of LNP formulations, mice were injected with 200 μL D-Luciferin luciferase developing substrate (Catalog No. 122799; Manufacturer: Perkin Elmer). After the substrate was injected, the mice were anesthetized with isoflurane inhalation, and the injection time of luciferase developing substrate was recorded.
The encapsulation efficiency of the lipid nanoparticle encapsulating luciferase mRNA (Fluc mRNA) with a representative amino lipid compound and the fluorescence expression intensity induced by the same are shown in Table 4, with the amino lipid compound 118 as a control.
The multiple of spleen delivery/total delivery of fluorescence expression intensity induced by lipid nanoparticle encapsulating luciferase mRNA (Fluc mRNA) with a representative amino lipid compound to amino lipid compound 118 is shown in Table 5.

| SMILES | Encapsulation efficiency [1] | Liver (fluorescence expression intensity) (Female BALB/c mice) | Spleen (fluorescence expression intensity) (Female BALB/c mice) | Total flux (fluorescence expression intensity) (Female BALB/c mice) | (Spleen/Total Flux) * 100% (Female BALB/c mice) | Multiple of spleen delivery/total delivery to amino lipid compound 118 (Female BALB/c mice) |
| --- | --- | --- | --- | --- | --- | --- |
| CCCCCCC(CCCCCC)OC(=O)CCCCCCCCC(CCCCCCCCC(=O)OC(CCCCCC)CCCCCC)OC(=O)N(CCCCCC(=O)OC(C)CC)CCCN(C)C (stereo not drawn) [Compound 298] | 92.85% | 3.32E+07 | 2.13E+06 | 2.61E+08 | 0.82% | 2.40 |
| CCCCCCC(CCCCCC)OC(=O)CCCCCCCCC(CCCCCCCCC(=O)OC(CCCCCC)CCCCCC)OC(=O)N(CCCCC(=O)OC(C)CCC)CCCN(C)C (stereo not drawn) [Compound 303] | 93.23% | 8.58E+07 | 5.56E+06 | 6.41E+08 | 0.87% | 2.55 |
| CCCCCCC(CCCCCC)OC(=O)CCCCCCCCC(CCCCCCCCC(=O)OC(CCCCCC)CCCCCC)OC(=O)N(CCCCC(=O)OC(CC)CC)CCCN(C)C [Compound 304] | 92.03% | 1.06E+08 | 1.48E+07 | 5.18E+08 | 2.86% | 8.40 |
| CCCCCCC(CCCCCC)OC(=O)CCCCCCCCC(CCCCCCCCC(=O)OC(CCCCCC)CCCCCC)OC(=O)N(CCCCC(=O)OC(C)CCCC)CCCN(C)C (stereo not drawn) [Compound 305] | 90.70% | 9.19E+07 | 7.03E+06 | 6.71E+08 | 1.05% | 3.08 |
| CCCCCCC(CCCCCC)OC(=O)CCCCCCCCC(CCCCCCCCC(=O)OC(CCCCCC)CCCCCC)OC(=O)N(CCCCC(=O)OC(CC)CCC)CCCN(C)C (stereo not drawn) [Compound 306] | 91.92% | 4.13E+07 | 5.44E+06 | 2.45E+08 | 2.22% | 6.53 |
| CCCCCCC(CCCCCC)OC(=O)CCCCCCCCC(CCCCCCCCC(=O)OC(CCCCCC)CCCCCC)OC(=O)N(CCCC(=O)OC(C)CC)CCCN(C)C (stereo not drawn) [Compound 308] | 93.71% | 9.58E+07 | 4.93E+06 | 6.29E+08 | 0.78% | 2.31 |
| CCCCCCC(CCCCCC)OC(=O)CCCCCCCCC(CCCCCCCCC(=O)OC(CCCCCC)CCCCCC)OC(=O)N(CCCC(=O)OC(C)CCC)CCCN(C)C (stereo not drawn) [Compound 309] | 91.62% | 4.90E+07 | 3.44E+06 | 3.69E+08 | 0.93% | 2.74 |
| CCCCCCC(CCCCCC)OC(=O)CCCCCCCCC(CCCCCCCCC(=O)OC(CCCCCC)CCCCCC)OC(=O)N(CCCN(C)C)CCC(=O)OC(C)C [Compound 316] | 90.67% | 1.26E+08 | 2.03E+07 | 8.16E+08 | 2.49% | 7.32 |
| CCCCCCC(CCCCCC)OC(=O)CCCCCCCCC(CCCCCCCCC(=O)OC(CCCCCC)CCCCCC)OC(=O)N(CCCN(C)C)CCC(=O)OC(C)CCCC (stereo not drawn) [Compound 320] | 92.13% | 1.13E+08 | 4.97E+06 | 7.04E+08 | 0.71% | 2.08 |
| CCCCCCC(CCCCCC)OC(=O)CCCCCCCCC(CCCCCCCCC(=O)OC(CCCCCC)CCCCCC)OC(=O)N(CCCN(C)C)CCC(=O)OC(CC)CCC (stereo not drawn) [Compound 321] | 93.85% | 1.27E+08 | 1.47E+07 | 7.21E+08 | 2.04% | 6.00 |
| CCCCCCC(CCCCCC)OC(=O)CCCCCCCCC(CCCCCCCCC(=O)OC(CCCCCC)CCCCCC)OC(=O)N(CCCN(C)C)CCC(=O)OC(C)CCCCC (stereo not drawn) [Compound 322] | 90.32% | 9.73E+07 | 6.56E+06 | 7.90E+08 | 0.83% | 2.44 |
| CCCCCCC(C)OC(=O)CN(CCCN(C)C)C(=O)OC(CCCCCCCCC(=O)OC(CCCCCC)CCCCCC)CCCCCCCCC(=O)OC(CCCCCC)CCCCCC (stereo not drawn) [Compound 337] | 92.38% | 6.49E+07 | 3.30E+06 | 3.58E+08 | 0.92% | 2.71 |
| CCCCCCC(CCCCCC)OC(=O)CCCCCCCCC(CCCCCCCCC(=O)OC(CCCCCC)CCCCCC)OC(=O)N(CCCN(C)C)CC(=O)OC(CC)CCCCC (stereo not drawn) [Compound 338] | 91.13% | 1.07E+08 | 3.20E+06 | 6.32E+08 | 0.51% | 1.49 |
| CCCCCCC(CCCCCC)OC(=O)CCCCCCCCC(CCCCCCCCC(=O)OC(CCCCCC)CCCCCC)OC(=O)N(CCCCCC(=O)OCC)CCCN1CCCC1 [Compound 365] | 92.45% | 9.03E+07 | 4.45E+06 | 6.73E+08 | 0.66% | 1.94 |
| CCCCCCC(CCCCCC)OC(=O)CCCCCCCCC(CCCCCCCCC(=O)OC(CCCCCC)CCCCCC)OC(=O)N(CCCCCC(=O)OCC)CCCCN1CCCC1 [Compound 366] | 93.63% | 8.92E+07 | 4.11E+06 | 5.82E+08 | 0.71% | 2.08 |
| CCCCCCC(CCCCCC)OC(=O)CCCCCCCCC(CCCCCCCCC(=O)OC(CCCCCC)CCCCCC)OC(=O)N(CCCN1CCCC1)CC(=O)OCC [Compound 367] | 91.21% | 1.06E+07 | 4.33E+05 | 9.45E+07 | 0.46% | 1.35 |
| CCCCCCC(CCCCCC)OC(=O)CCCCCCCCC(CCCCCCCCC(=O)OC(CCCCCC)CCCCCC)OC(=O)N(CCCCN1CCCC1)CC(=O)OCC [Compound 368] | 87.51% | 6.14E+07 | 1.25E+07 | 3.97E+08 | 3.15% | 9.26 |
